A short description of data set [1]: Stability in pH 7.5 buffer assessed as compound recovery at 1 uM by Thioflavin T based fluorescence assay. It counts as physicochemical. The conditions noted are these: read-out: Drug recovery.
The nature of data set [2]: Solubility in 100 mM bistrispropane buffer at pH 7.5 incubated for 18 hrs by UPLC analysis. The data set is classed as physicochemical.
Data set [3] in a line: Solubility in 100 mM bistrispropane buffer at pH 6.5 incubated for 18 hrs by UPLC analysis. It counts as physicochemical.
Data set [4] has as its target T1, Calcitonin receptor (Homo sapiens, UniProt P30988).
T1 sequence (P30988 whole entry): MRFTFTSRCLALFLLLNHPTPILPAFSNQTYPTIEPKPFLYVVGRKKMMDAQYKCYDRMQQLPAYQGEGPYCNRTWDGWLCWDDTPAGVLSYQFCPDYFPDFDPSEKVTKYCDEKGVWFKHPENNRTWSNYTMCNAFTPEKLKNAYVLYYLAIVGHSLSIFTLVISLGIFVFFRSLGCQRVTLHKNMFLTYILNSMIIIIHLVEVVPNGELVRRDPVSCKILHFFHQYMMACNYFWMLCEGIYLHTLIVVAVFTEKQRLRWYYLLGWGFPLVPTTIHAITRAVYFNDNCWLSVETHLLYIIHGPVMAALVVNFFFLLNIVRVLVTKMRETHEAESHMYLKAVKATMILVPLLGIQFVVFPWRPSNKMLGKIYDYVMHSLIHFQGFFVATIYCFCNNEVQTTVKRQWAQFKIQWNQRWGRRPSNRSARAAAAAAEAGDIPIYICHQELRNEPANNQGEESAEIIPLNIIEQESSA
Description: Agonist activity at human calcitonin receptor expressed in BHK570 cells assessed as increase in intracellular cAMP concentration incubated for 3 hrs in presence of 10% FBS by CRE luciferase reporter gene assay. The data set is classed as functional, cell-based. For orientation: A reporter such as luciferase makes a cellular process visible.

Data set [5] addresses T1, Calcitonin receptor. Description: Displacement of [125I]-labeled human calcitonin from human calcitonin receptor expressed in BHK tkts13 cell membranes incubated for 1 hr by scintillation proximity assay. In general terms: In a radioligand displacement assay an active substance lowers the binding of a labelled ligand.
Data set [6] concerns the target T2, Amylin receptor AMY3; CALCR/RAMP3 (Homo sapiens, UniProt O60896+P30988).
T2 sequence (P30988 whole entry): T1 sequence (P30988 whole entry)
T2 sequence (O60896 whole entry): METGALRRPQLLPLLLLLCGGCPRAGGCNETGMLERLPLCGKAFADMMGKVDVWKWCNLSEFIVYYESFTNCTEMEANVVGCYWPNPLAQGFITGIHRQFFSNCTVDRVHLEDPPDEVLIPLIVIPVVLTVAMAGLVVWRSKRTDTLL
The data set can be described thus: Displacement of [125I]-labeled rat amylin from human amylin receptor expressed in BHK tkts13 whole cells co-expressing RAMP3 incubated for 60 mins by scintillation proximity assay. It counts as cell-based.

The nature of data set [7]: Solubility in 100 mM glycylglycine buffer at pH 3.0 incubated for 18 hrs by UPLC analysis. It counts as physicochemical.
The target of data set [8] is T2, Amylin receptor AMY3; CALCR/RAMP3. Description: Displacement of [125I]-labeled rat amylin from human amylin receptor expressed in BHK570 cell membranes co-expressing RAMP3 incubated for 120 mins by scintillation proximity assay.
Data set [9] in a line: Solubility in 100 mM bistrispropane buffer at pH 8.0 incubated for 18 hrs by UPLC analysis. The data set is classed as physicochemical.
The nature of data set [10]: Stability in pH 7.5 buffer assessed as lag time for fibril formation at 1 uM by Thioflavin T based fluorescence assay. The data set is classed as physicochemical. The settings on record: pH 7.5, 1 µM.
Data set [11] can be described thus: Solubility in 100 mM bistrispropane buffer at pH 6.0 incubated for 18 hrs by UPLC analysis. The data set is classed as physicochemical.
The nature of data set [12]: Solubility in 100 mM glycylglycine buffer at pH 5.0 incubated for 18 hrs by UPLC analysis. The data set is classed as physicochemical.
The nature of data set [13]: Solubility in 100 mM bistrispropane buffer at pH 7.0 incubated for 18 hrs by UPLC analysis. The data set is classed as physicochemical.
Data set [14] addresses T2, Amylin receptor AMY3; CALCR/RAMP3. Description: Agonist activity at human amylin receptor expressed in BHK570 cells co-expressing RAMP3 assessed as increase in intracellular cAMP concentration incubated for 3 hrs in absence of albumin by CRE luciferase reporter gene assay. It counts as functional, cell-based.
Data set [15] deals with T1, Calcitonin receptor. The data set can be described thus: Agonist activity at human calcitonin receptor expressed in BHK570 cells assessed as increase in intracellular cAMP concentration incubated for 3 hrs in absence of albumin by CRE luciferase reporter gene assay. The data set is classed as functional, cell-based.
A short description of data set [16]: Solubility in 100 mM glycylglycine buffer at pH 4.0 incubated for 18 hrs by UPLC analysis. It counts as physicochemical.
For data set [17], the target named is T3, Amylin receptor AMY3; CALCR/RAMP3 (Rattus norvegicus, UniProt P32214+Q9JJ73).
T3 sequence (P32214 whole entry): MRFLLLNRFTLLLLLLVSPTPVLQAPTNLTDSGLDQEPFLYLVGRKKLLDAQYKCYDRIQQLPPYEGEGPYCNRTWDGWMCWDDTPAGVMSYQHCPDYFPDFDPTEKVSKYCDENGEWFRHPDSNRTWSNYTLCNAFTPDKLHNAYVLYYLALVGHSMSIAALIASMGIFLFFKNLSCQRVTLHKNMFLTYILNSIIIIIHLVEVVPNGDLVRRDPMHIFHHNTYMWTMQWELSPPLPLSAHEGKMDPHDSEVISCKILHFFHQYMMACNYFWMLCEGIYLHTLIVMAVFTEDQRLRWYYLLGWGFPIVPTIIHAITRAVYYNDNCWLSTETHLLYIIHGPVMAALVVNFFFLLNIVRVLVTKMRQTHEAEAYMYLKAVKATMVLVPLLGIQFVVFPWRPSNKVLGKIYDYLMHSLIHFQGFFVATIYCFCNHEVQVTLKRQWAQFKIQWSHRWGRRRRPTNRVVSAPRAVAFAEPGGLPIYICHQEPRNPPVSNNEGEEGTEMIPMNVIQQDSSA
T3 sequence (Q9JJ73 whole entry): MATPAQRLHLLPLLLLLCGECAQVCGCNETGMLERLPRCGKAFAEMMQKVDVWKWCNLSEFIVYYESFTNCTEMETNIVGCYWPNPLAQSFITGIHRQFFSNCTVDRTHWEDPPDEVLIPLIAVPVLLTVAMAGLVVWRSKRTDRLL
The data set can be described thus: Displacement of [125I]-labeled rat amylin from rat amylin receptor expressed in BHK tkts13 cell membranes co-expressing RAMP3 incubated for 120 mins by scintillation proximity assay.

Data set [18] deals with Rattus norvegicus. Description: Reduction in food intake in Sprague-Dawley rat at 3 nmol/kg measured 0 to 24 hrs post dose relative to control. Details: scale not given: the % may be the effect or the level left. It counts as functional.
The subject of data set [19] is Rattus norvegicus. Description: Reduction in food intake in Sprague-Dawley rat at 3 nmol/kg measured 24 to 48 hrs post dose relative to control. It counts as functional. On the set-up: scale not given: the % may be the effect or the level left.

Results on 3 molecules are retold here after ChEMBL document CHEMBL4420076, “Amylin and calcitonin receptor agonist” (2017).

Structures are written as SMILES. Numbered stars: 1 amine (or outer) side, 2 acyl side, 3 side chain; on linkers, the order of the positions; unused ones are H or OH. Peptide text beside a SMILES is read from it. * marks the point of attachment. C20 diacid = O=C(O)CCCCCCCCCCCCCCCCCCC(=O)*; γGlu = O=C(O)[C@H](CCC(=O)[*:2])N[*:1]

By solubility is commonly meant the dissolved amount per volume that the medium holds. A word on the EC50: it is the concentration at which the effect is half-maximal. Usually IC50 stands for the concentration that inhibits the measured activity by half. Consider `CC(C)C[C@H](NC(=O)[C@H](C)NC(=O)[C@H](C)NC(=O)[C@@H](NC(=O)[C@H](CO)NC(=O)[C@H](CC(C)C)NC(=O)[C@H](CCC(=O)O)NC(=O)[C@H](CO)NC(=O)[C@H](C)NC(=O)CC[C@H](NC(=O)CCCCCCCCCCCCCCCCCCC(=O)O)C(=O)O)[C@@H](C)O)C(=O)NCC(=O)N[C@@H](CCCNC(=N)N)C(=O)N[C@@H](CC(C)C)C(=O)N[C@@H](CO)C(=O)N[C@@H](C)C(=O)N[C@@H](CCC(=O)O)C(=O)N[C@@H](CC(C)C)C(=O)N[C@@H](Cc1cnc[nH]1)C(=O)N[C@@H](CCC(=O)O)C(=O)N[C@@H](CC(C)C)C(=O)N[C@@H](C)C(=O)N[C@H](C(=O)N[C@@H](CC(C)C)C(=O)N1CCC[C@H]1C(=O)N[C@@H](CCCNC(=N)N)C(=O)N[C@H](C(=O)N[C@@H](CCC(=O)O)C(=O)N[C@H](C(=O)NCC(=O)N[C@@H](CO)C(=O)NCC(=O)N[C@@H](CO)C(=O)N[C@@H](Cc1cnc[nH]1)C(N)=O)[C@@H](C)O)[C@@H](C)O)[C@@H](C)O` ({C20 diacid-γGlu}-ASELSTAALGRLSAELHELATLPRTETGSGSH-NH2), for which the remaining at 1 µM in [1] stood at 100%. The solubility at 18 h in data set [2], in data set [3], in data set [7], in data set [9], in data set [11] and in [12] was not below 200 µM throughout. The solubility at 18 h in data set [13] and in data set [16] was not below 200 µM throughout. Besides, the EC50 is 0.072 nM in data set [4], 0.053 nM in [14] and 0.048 nM in data set [15]. The IC50 was 0.034 nM in data set [5], 1.07 nM in data set [6], 0.057 nM in [8] and 0.046 nM in data set [17]. Moreover, the Time in data set [10] was more than 45 h.
Take `CC(C)C[C@H](NC(=O)CNC(=O)[C@H](CO)NC(=O)[C@H](C)NC(=O)CC[C@H](NC(=O)CCCCCCCCCCCCCCCCCCC(=O)O)C(=O)O)C(=O)N[C@@H](CO)C(=O)N[C@H](C(=O)N[C@@H](C)C(=O)N[C@@H](C)C(=O)N[C@@H](CC(C)C)C(=O)NCC(=O)N[C@@H](CCCNC(=N)N)C(=O)N[C@@H](CC(C)C)C(=O)N[C@@H](CO)C(=O)N[C@@H](CCC(N)=O)C(=O)N[C@@H](CCC(=O)O)C(=O)N[C@@H](CC(C)C)C(=O)N[C@@H](Cc1cnc[nH]1)C(=O)N[C@@H](CCC(=O)O)C(=O)N[C@@H](CC(C)C)C(=O)N[C@@H](CCC(N)=O)C(=O)N[C@H](C(=O)N[C@@H](Cc1ccc(O)cc1)C(=O)N1CCC[C@H]1C(=O)N[C@@H](CCCNC(=N)N)C(=O)N[C@H](C(=O)N[C@@H](CCC(=O)O)C(=O)N[C@H](C(=O)NCC(=O)N[C@@H](CO)C(=O)N[C@@H](CCC(N)=O)C(=O)N[C@H](C(=O)N[C@@H](Cc1ccc(O)cc1)C(N)=O)[C@@H](C)O)[C@@H](C)O)[C@@H](C)O)[C@@H](C)O)[C@@H](C)O` ({C20 diacid-γGlu}-ASGLSTAALGRLSQELHELQTYPRTETGSQTY-NH2): in [1], the remaining at 1 µM stood at 100%. Further, the solubility at 18 h in data set [2], in data set [3], in data set [7], in [9], in data set [11] and in [13] was not below 200 µM in each case. Moreover, in [16], the solubility at 18 h is not below 200 µM. Also, the Activity in data set [18] is listed as 40%; in [19], 42%. Further, the values for the 50% effective concentration (EC50) in data set [4], in data set [14] and in data set [15] were 0.108 nM, 0.037 nM and 0.025 nM, respectively. Besides, the results for the IC50 in [5], in data set [8] and in data set [17] were 0.051 nM, 0.131 nM and 0.078 nM, respectively. Further, the Time in [10] is more than 45 h.
Turning to `CC(C)C[C@H](NC(=O)CNC(=O)[C@H](CO)NC(=O)[C@H](C)NC(=O)CC[C@H](NC(=O)CCCCCCCCCCCCCCCCCCC(=O)O)C(=O)O)C(=O)N[C@@H](CO)C(=O)N[C@H](C(=O)N[C@@H](C)C(=O)N[C@H](C(=O)N[C@@H](CC(C)C)C(=O)NCC(=O)N[C@@H](CCCNC(=N)N)C(=O)N[C@@H](CC(C)C)C(=O)N[C@@H](CO)C(=O)N[C@@H](CCC(N)=O)C(=O)N[C@@H](CCC(=O)O)C(=O)N[C@@H](CC(C)C)C(=O)N[C@@H](Cc1cnc[nH]1)C(=O)N[C@@H](CCC(=O)O)C(=O)N[C@@H](CC(C)C)C(=O)N[C@@H](CCC(N)=O)C(=O)N[C@H](C(=O)N[C@@H](Cc1ccc(O)cc1)C(=O)N1CCC[C@H]1C(=O)N[C@@H](CCCNC(=N)N)C(=O)N[C@H](C(=O)N[C@@H](CCC(=O)O)C(=O)N[C@H](C(=O)NCC(=O)N[C@@H](CO)C(=O)N[C@@H](CCC(N)=O)C(=O)N[C@H](C(=O)N[C@@H](Cc1ccc(O)cc1)C(N)=O)[C@@H](C)O)[C@@H](C)O)[C@@H](C)O)[C@@H](C)O)C(C)C)[C@@H](C)O` ({C20 diacid-γGlu}-ASGLSTAVLGRLSQELHELQTYPRTETGSQTY-NH2), the remaining at 1 µM in data set [1] amounted to 39.5%. Besides, the solubility at 18 h in [2], in data set [3], in [7], in [9], in data set [11] and in [13] was not below 200 µM each time. The Activity in [18] was 25%; in data set [19], 29%. Also, the EC50 in data set [4] was 0.061 nM; in [14], 0.072 nM; in data set [15], 0.049 nM. Besides, the 50% inhibitory concentration (IC50) in [5] was 0.067 nM; in data set [8] it was 0.152 nM; in data set [17] it was 0.053 nM. For the same molecule, the Time in data set [10] amounted to 1.5 h.
